From US8409581B2, “Compounds for treating amyloidoses” (Affiris AG, priority 2008, dated 2013)
Ends that are not written are not given here.

Legend:
[1] = system: monoclonal antibody MV-002; test: In vitro binding assay (ELISA) of mimotopes to parental antibody; set-up: species or system mice; settings: peptide coupled to BSA bound to ELISA plates (1 μM); parental antibody MV-002
Method: 1. In Vitro Binding Assay (ELISA)
Peptides derived from Phage Display as well as variants thereof were coupled to BSA and bound to ELISA plates (1 μM; as indicated in the respective figures) and subsequently incubated with the monoclonal antibody that was used for the screening procedure to analyse binding capacity of identified peptides.

[2] = system: monoclonal antibody MV-002 binding to the original epitope; test: In vitro inhibition assay (ELISA); set-up: species or system mice; settings: for Inhibition Capacity (competition code): OD at 5 ug peptide compared to original peptide, MV-002; for inhibition in in vitro inhibition/competition assay: MV-002, original epitope coated on ELISA plates
Method: 2. In Vitro Inhibition Assay (ELISA)
Different amounts of peptides (concentrations ranging from 5 μg to 0.03 μg; serial dilutions), derived from Phage Display were incubated with the monoclonal antibody that was used for the screening procedure. Peptides diminishing subsequent binding of the antibody to the original epitope coated on ELISA plates were considered as inhibiting in this assay.

original epitope p4377 = test: Mimotope vaccination of mice, serum titer ELISA against original epitope; assay type: in vivo, C57/B16 mice; settings: 30 μg peptide-KLH, alum, s.c., FIG. 5
Method: (§1) Inhibiting as well as non-inhibiting peptides were coupled to KLH and injected into mice (wildtype C57/B16 mice; subcutaneous injection into the flank) together with an appropriate adjuvant (aluminium hydroxide). Animals were vaccinated 3-6 times in biweekly intervals and sera were taken biweekly as well. Titers to injected peptides, as well as to an irrelevant peptide were determined with every serum. Furthermore, titers against the recombinant human Aβ protein, and against original peptides were determined respectively. In general sera were analysed by reaction against peptides coupled to Bovine Serum Albumin (BSA) and recombinant full length proteins which were immobilised on ELISA plates. Titers were determined using anti mouse IgG specific antibodies. For detailed results see FIGS. 4, 5 and 6 respectively.
(§2) Female C57/b16 mice, 5-6 mice per group, were subcutaneously immunized with 30 μg peptide coupled to KLH. Control groups were administered original epitope-KLH conjugates respectively. As adjuvant alum was used (always 1 mg per mouse). […] The in vitro ELISA assay to determine the antibody titer was performed with sera of single mice after each vaccination in a two week interval (see FIGS. 6 and 7 respectively). Titers were calculated as OD max/2 in all figures shown. The wells of the ELISA plate were coated with mimotope-BSA conjugate and an irrelevant peptide-BSA conjugate (negative control). The positive control was performed by reaction of the parental antibody with the respective mimotope-BSA conjugate. The detection was performed with anti-mouse IgG. Additionally, recombinant proteins were immobilised on ELISA plates and sera reacted accordingly. FIGS. 4, 5 and 6 show representative examples for assays used to characterise mimotopes in vivo.

[3] = system: p1454 (unrelated sequence); test: Mimotope vaccination of mice, serum titer ELISA against irrelevant peptide; assay type: in vivo, C57/B16 mice; settings: 30 μg peptide-KLH, alum, s.c., FIG. 4
Method: as §1, §2

injected peptide = test: Mimotope vaccination of mice, serum titer ELISA against injected peptide; assay type: in vivo, C57/B16 mice; settings: 30 μg peptide-KLH, alum, s.c., FIG. 4
Method: as §1, §2

Row | Substance | Binding Capacity (binding code; OD halfmax 1:X, dilution factor of the parental AB) [1] | also measured
1 | GDLKFPLC [p4683, MV-002 mimotope peptide] | 3 (strong binding :>320000) | 
2 | GEILFGMC [p4689, MV-002 mimotope peptide] | 3 (strong binding :>320000) | Inhibition Capacity (competition code) [2]: 1 (Weaker than original epitope (OD of peptide below 4, 6 times of original peptide))
3 | GSLFFWPC [p4688, MV-002 mimotope peptide] | 2 (medium binding :40000-320000) | 
4 | AGEIYFERC [p4806, MV-002 mimotope peptide] | 1 (weak binding :<40000) | 
5 | CGEIYFER [p4807, MV-002 mimotope peptide] | 1 (weak binding :<40000) | 
6 | HMRLFFNC [p4670, MV-002 mimotope peptide] | 3 (strong binding :>320000) | inhibition in in vitro inhibition/competition assay [2]: active in in vitro inhibition assays; Inhibition Capacity (competition code) [2]: 1 (Weaker than original epitope (OD of peptide below 4, 6 times of original peptide)); immune response against the original epitope p4377 (original epitope p4377): mounted detectable immune responses; unspecific immune response against unrelated sequence (p1454) [3]: failed to induce a relevant unspecific immune response; immune response against injected peptide (injected peptide): elicited immune responses
7 | GQIQFPLC [p4697, MV-002 mimotope peptide] | 3 (strong binding :>320000) | 
8 | GEIRFALC [p4678, MV-002 mimotope peptide] | 3 (strong binding :>320000) | 
9 | GEIRFGSC [p4696, MV-002 mimotope peptide] | 3 (strong binding :>320000) | 
10 | GEIKFDHC [p4698, MV-002 mimotope peptide] | 3 (strong binding :>320000) | Inhibition Capacity (competition code) [2]: 2 (strong inhibition (as original epitope; OD of peptide below 2, 3 times of original peptide))
11 | GEIQFGAC [p4699, MV-002 mimotope peptide] | 3 (strong binding :>320000) | Inhibition Capacity (competition code) [2]: 1 (Weaker than original epitope (OD of peptide below 4, 6 times of original peptide))
12 | SHQRLWFC [p4674, MV-002 mimotope peptide] | 3 (strong binding :>320000) | Inhibition Capacity (competition code) [2]: 1 (Weaker than original epitope (OD of peptide below 4, 6 times of original peptide))
13 | GEMWFALC [p4671, MV-002 mimotope peptide] | 3 (strong binding :>320000) | 
14 | GQILFPVC [p4684, MV-002 mimotope peptide] | 3 (strong binding :>320000) | 
15 | NDAKIVFC [p4667, MV-002 mimotope peptide] | 3 (strong binding :>320000) | Inhibition Capacity (competition code) [2]: 1 (Weaker than original epitope (OD of peptide below 4, 6 times of original peptide))
16 | GQIWFISC [p4666, MV-002 mimotope peptide] | 1 (weak binding :<40000) | 
17 | GEMQFFIC [p4676, MV-002 mimotope peptide] | 3 (strong binding :>320000) | 
18 | HQKMIFC [p4794, MV-002 mimotope peptide] | 2 (medium binding :40000-320000) | Inhibition Capacity (competition code) [2]: 1 (Weaker than original epitope (OD of peptide below 4, 6 times of original peptide))
19 | SGEIHFNC [p4415, MV-002 mimotope peptide] | 1 (weak binding :<40000) | 
20 | QLPLFVLC [p4700, MV-002 mimotope peptide] | 1 (weak binding :<40000) | 
21 | GTIFFRDC [p4692, MV-002 mimotope peptide] | 1 (weak binding :<40000) | 
22 | GELQFPPC [p4672, MV-002 mimotope peptide] | 3 (strong binding :>320000) | 
23 | EVHHQKLVFC [p4377, reference compound] |  | immune response against the original epitope p4377 (original epitope p4377): mounted detectable immune responses; unspecific immune response against unrelated sequence (p1454) [3]: failed to induce a relevant unspecific immune response; immune response against injected peptide (injected peptide): elicited immune responses

Row | Substance | Binding Capacity (binding code; OD halfmax 1:X, dilution factor of the parental AB) [1] | also measured
24 | GMIVFPHC [p4679, MV-002 mimotope peptide] | 3 (strong binding :>320000) | 
25 | GTLIFHHC [p4695, MV-002 mimotope peptide] | 2 (medium binding :40000-320000) | 
26 | GELWFPC [p4673, MV-002 mimotope peptide] | 3 (strong binding :>320000) | Inhibition Capacity (competition code) [2]: 1 (Weaker than original epitope (OD of peptide below 4, 6 times of original peptide))
27 | GQLKFPFC [p4690, MV-002 mimotope peptide] | 3 (strong binding :>320000) | 
28 | GQIRFDHC [p4669, MV-002 mimotope peptide] | 3 (strong binding :>320000) | 
29 | GQIMFPRC [p4686, MV-002 mimotope peptide] | 3 (strong binding :>320000) | 
30 | GQIIFQSC [p4668, MV-002 mimotope peptide] | 2 (medium binding :40000-320000) | 
31 | GEIYFERC [p4681, MV-002 mimotope peptide] | 3 (strong binding :>320000) | inhibition in in vitro inhibition/competition assay [2]: active in in vitro inhibition assays; Inhibition Capacity (competition code) [2]: 2 (strong inhibition (as original epitope; OD of peptide below 2, 3 times of original peptide)); immune response against the original epitope p4377 (original epitope p4377): mounted detectable immune responses; unspecific immune response against unrelated sequence (p1454) [3]: failed to induce a relevant unspecific immune response; immune response against injected peptide (injected peptide): elicited immune responses
32 | HMRMYFEC [p4687, MV-002 mimotope peptide] | 3 (strong binding :>320000) | 
33 | SGEYVFHC [p4404, MV-002 mimotope peptide] | 1 (weak binding :<40000) | 
34 | THQRLWFC [p4693, MV-002 mimotope peptide] | 3 (strong binding :>320000) | 
35 | KLPLFVMC [p4691, MV-002 mimotope peptide] | 1 (weak binding :<40000) | 
36 | GELFFPKC [p4685, MV-002 mimotope peptide] | 3 (strong binding :>320000) | 
37 | GQIKFAQC [p4694, MV-002 mimotope peptide] | 3 (strong binding :>320000) | 
38 | SGEIYFERC [p4805, MV-002 mimotope peptide] | 1 (weak binding :<40000) | 
39 | AIPLFVMC [p4682, MV-002 mimotope peptide] | 1 (weak binding :<40000) | 
40 | SGQIWFRC [p4414, MV-002 mimotope peptide] | 1 (weak binding :<40000) | 
41 | GELYFRAC [p4677, MV-002 mimotope peptide] | 3 (strong binding :>320000) | 
42 | GELFFEKC [p4795, MV-002 mimotope peptide] | 2 (medium binding :40000-320000) | 
43 | GEIRFELC [p4796, MV-002 mimotope peptide] | 2 (medium binding :40000-320000) | 
44 | Ac-GEIYFERC [p4804, MV-002 mimotope peptide, N-terminally acetylated] | 2 (medium binding :40000-320000) | 
45 | SGQLKFPC [p4413, MV-002 mimotope peptide] | 1 (weak binding :<40000) | 
